Measured values: US20260271987A1, “AEROSOL PRECURSOR COMPOSITION COMPRISING MONOMENTHYL ESTER” (RAI STRATEGIC HOLDINGS, INC., priority 2023, published 2026)

Test: Thermal analysis (flash pyrolysis and thermogravimetric analysis) of neat menthyl monosuccinate
Type: physicochemical
Details: for Compounds volatilized by FP and TGA, Area %: neat menthyl monosuccinate sample, FP in helium, Teq=340° C., 40 seconds, GC/MS, TGA 30 to 340° C. at 20 degrees per minute
Method: Flash pyrolysis (FP) and thermogravimetric analysis (TGA) were conducted on a sample of menthyl monosuccinate.
For the FP, a pyroprobe Model 5200 (CDS Analytical, CDS, Oxford, PA 19363, USA) pyrolyzer was used. Heating was performed in helium in flash mode with Teq=340° C. using approximately 0.5 mg of neat monomenthyl succinate. Heating was performed for 40 seconds. GC/MS analysis was performed with separation on a DB-1701 column. For the TG, a Discovery TA 5500 (TA Instruments, New Castle, DE, USA) was used. The temperature range was 30 to 340° C. at a ramp rate of 20 degrees per minute. Neat monomenthyl succinate (2-3 mg) and silica (about 1.5 mg, containing 5% naphthalene) was used as an internal standard.

Row | Structure (SMILES) | major decomposition product formed from menthyl monosuccinate (FP and TGA, up to 340° C.) | Compounds volatilized by FP and TGA, Area % | portion of the menthyl monosuccinate volatilized without decomposition (FP and TGA, up to 340° C.)
1 | CC(C)[C@@H]1CC[C@@H](C)C[C@H]1O [Menthol, (1R,2S,5R)-5-Methyl-2-(propan-2-yl)cyclohexan-1-ol] | 16.5% | 16.5% | 
2 | CC(C)[C@@H]1CC[C@@H](C)C[C@H]1OC(=O)CCC(=O)O [Menthyl monosuccinate] |  | 70% | 70%
